Results taken from ChEMBL document CHEMBL5236550, “Small molecule selenium-containing compounds: Recent development and therapeutic applications” (Eur J Med Chem, 2021).
≈ marks a conversion by molar mass, not a printed value.

Columns and labels:
U-266 = test: Anticancer activity against human U-266 cells assessed as cell growth inhibition incubated for 24 hrs by MTS assay; type: functional, cell-based; conditions: U-266, 24 h
MIA PaCa-2 = test: Anticancer activity against human MIA PaCa-2 cells xenografted in female Foxn1nu mouse assessed as reduction in tumor growth po,administered once daily for 28 days; type: functional; conditions: time 28 day
MCF7 [1] = test: Anticancer activity against human MCF7 cells assessed as cell growth inhibition incubated for 24 hrs by ELISA based CCK8 assay; type: functional; conditions: MCF7, 24 h
HepG2 = test: Anticancer activity against human HepG2 cells assessed as cell growth inhibition incubated for 72 hrs by fluorescence based MTT assay; type: functional; conditions: HepG2, 72 h
MCF7 [2] = test: Anticancer activity against human MCF7 cells assessed as cell growth inhibition incubated for 72 hrs by fluorescence based MTT assay; type: functional; conditions: MCF7, 72 h
A-375 = test: Anticancer activity against human A-375 cells assessed as cell growth inhibition incubated for 72 hrs by fluorescence based MTT assay; type: functional; conditions: A-375, 72 h
Aspergillus niger = test: […] inhibition incubated for 24 hrs by agar disc diffusion assay; type: functional
Calu-1 = test: Anticancer activity against human HTB-54 cells assessed as cell growth inhibition incubated for 48 hrs by MTT assay; type: functional, cell-based; conditions: Calu-1, 48 h
NCI-H1299 = test: Anticancer activity against human H1299 cells assessed as cell growth inhibition incubated for 48 hrs by MTT assay; type: functional, cell-based; conditions: NCI-H1299, 48 h
[3] = Inhibition of Vibrio cholerae alpha carbonic anhydrase assessed as inhibition constant by phenol red-based hydrase assay
Pseudomonas aeruginosa [4] = test: Antibacterial activity against Pseudomonas aeruginosa PA 58 assessed as bacterial growth inhibition incubated for 20 hrs by […]; type: functional
Klebsiella pneumoniae [5] = test: Antibacterial activity against Klebsiella pneumoniae NRZ-00103 assessed as bacterial growth inhibition incubated for 20 hrs by […]; type: functional, organism-based; conditions: NRZ-00103, 20 h
Escherichia coli [6] = test: Antibacterial activity against Escherichia coli NCTC 13351 assessed as bacterial growth inhibition incubated for 20 hrs by […]; type: functional
Escherichia coli [7] = test: Antibacterial activity against Escherichia coli EC 2151612 assessed as bacterial growth inhibition incubated for 20 hrs by […]; type: functional
Pseudomonas aeruginosa [8] = test: Antibacterial activity against Pseudomonas aeruginosa ATCC 27853 assessed as bacterial growth inhibition incubated for 20 hrs by […]; type: functional, organism-based; conditions: ATCC 27853, 20 h
Klebsiella pneumoniae [9] = test: Antibacterial activity against Klebsiella pneumoniae KP 1963584 assessed as bacterial growth inhibition incubated for 20 hrs by […]; type: functional, organism-based; conditions: KP 1963584, 20 h
Escherichia coli [10] = test: Antibacterial activity against Escherichia coli EC 1995591 assessed as bacterial growth inhibition incubated for 20 hrs by […]; type: functional
Escherichia coli [11] = test: Antibacterial activity against Escherichia coli EC 1227107 assessed as bacterial growth inhibition incubated for 20 hrs by […]; type: functional
Acinetobacter [12] = test: Antibacterial activity against Acinetobacter AC 2151300 assessed as bacterial growth inhibition incubated for 20 hrs by […]; type: functional, organism-based; conditions: AC 2151300, 20 h
Pseudomonas aeruginosa [13] = test: Antibacterial activity against Pseudomonas aeruginosa PA T18 assessed as bacterial growth inhibition incubated for 20 hrs by […]; type: functional, organism-based; conditions: PA T18, 20 h
Acinetobacter [14] = test: Antibacterial activity against Acinetobacter AB 4184/2/5 assessed as bacterial growth inhibition incubated for 20 hrs by […]; type: functional, organism-based; conditions: AB 4184/2/5, 20 h
Acinetobacter [15] = test: Antibacterial activity against Acinetobacter AC 1995594 assessed as bacterial growth inhibition incubated for 20 hrs by […]; type: functional, organism-based; conditions: AC 1995594, 20 h
Pseudomonas aeruginosa [16] = test: Antibacterial activity against Pseudomonas aeruginosa PA 54 assessed as bacterial growth inhibition incubated for 20 hrs by […]; type: functional, organism-based
Staphylococcus aureus = test: Antibacterial activity against Methicillin resistant Staphylococcus aureus assessed as bacterial growth inhibition incubated for 20 hrs by […]; type: functional
Klebsiella pneumoniae [17] = test: Antibacterial activity against Klebsiella pneumoniae KP 21513017 assessed as bacterial growth inhibition incubated for 20 hrs by […]; type: functional, organism-based; conditions: KP 21513017, 20 h
UACC-903 = test: Antitumor activity against human UACC-903 cells xenografted with mouse assessed as reduction in tumor volume at 0.127 uM, ip administered alternate days for 4 week relative to control; type: functional; parameters: scale not given: the % may be the effect or the level left; conditions: time 4 weeks
[18] = Antitumor activity against human 1205Lu cells xenografted with mouse assessed as reduction in tumor volume at 0.127 uM, ip administered alternate days for 4 week relative to control; type: functional; parameters: scale not given: the % may be the effect or the level left; conditions: time 4 weeks
[19] = Anticancer activity against human WM35 cells assessed as cell growth inhibition incubated for 72 hrs by MTS assay; type: functional, cell-based; conditions: WM35, 72 h, pooled result: one value given for 4 cell lines, strains, targets or settings
SH-SY5Y = test: Antitumor activity against human SH-SY5Y cells assessed as induction of apoptosis by propidium iodide staining based flow cytometry analysis; type: functional, cell-based
Aspergillus = test: Antifungal activity against Aspergillus assessed as fungal growth inhibition incubated by microtitre assay; type: functional
Candida albicans = test: Antifungal activity against Candida albicans assessed as fungal growth inhibition incubated by microtitre assay; type: functional
Fusarium = test: Antifungal activity against Fusarium assessed as fungal growth inhibition incubated by microtitre assay; type: functional
HeLa = test: Anticancer activity against human HeLa cells assessed as cell growth inhibition incubated for 72 hrs by MTT assay; type: functional, cell-based
Enterococcus faecalis = test: Antibacterial activity against Enterococcus faecalis assessed as bacterial growth inhibition incubated for 24 hrs by microtitre analysis; type: functional
[20] = tested on: Staphylococcus saprophyticus; test: Antibacterial activity against Staphylococcus saprophyticus assessed as bacterial growth inhibition incubated for 24 hrs by microtitre analysis; type: functional
Bacillus cereus [21] = test: […] activity against Bacillus cereus assessed as bacterial growth inhibition incubated for 24 hrs by microtitre analysis; type: functional
Bacillus cereus [22] = test: Antibacterial activity against Bacillus cereus assessed as bacterial growth inhibition incubated for 24 hrs by microtitre analysis; type: functional
BGC-823 = test: Anticancer activity against human BGC-823 cells assessed as cell growth inhibition incubated for 72 hrs by MTT assay; type: functional, cell-based; conditions: BGC-823, 72 h
PC-3 = test: Anticancer activity against human PC-3 cells assessed as cell growth inhibition incubated for 72 hrs by MTT assay; type: functional, cell-based; conditions: PC-3, 72 h
MCF7 [23] = test: Anticancer activity against human MCF7 cells assessed as cell growth inhibition incubated for 72 hrs by MTT assay; type: functional, cell-based; conditions: MCF7, 72 h
Caco-2 = test: Anticancer activity against human Caco-2 cells assessed as cell growth inhibition incubated for 72 hrs by MTT assay; type: functional, cell-based; conditions: Caco-2, 72 h
[24] = Anticancer activity against human SWO-38 cells assessed as cell growth inhibition incubated for 48 hrs by MTT assay; type: functional, cell-based; conditions: SWO-38, 48 h
Trypanosoma cruzi [25] = test: Antibacterial activity against Trypanosoma cruzi Y assessed as bacterial growth inhibition incubated for 24 hrs; type: functional, organism-based
Trypanosoma cruzi [26] = test: Antibacterial activity against Trypanosoma cruzi Dm28c assessed as inhibition of bacterial growth incubated for 72 hrs by microplate reader analysis; type: functional, organism-based

**Q.** What does the source list for `O=c1c2ccccc2[se]n1-c1ccccc1` [EBSELEN]?
**A.** IC50 (U-266): 40 µM; inhibition (INH) (MIA PaCa-2): 58%

**Q.** Which IC50 (MCF7 [1]) does the source give for `Clc1ccc([Se][Se]c2ccc(Cl)nn2)nn1` here?
**A.** 10.3 µM

**Q.** With `O=c1[nH]c(=O)c2n[se]nc2[nH]1` as the compound, how does the IC50 (HepG2) read?
**A.** 19.6 µM

**Q.** What about the IC50 (MCF7 [2]) of the same compound?
**A.** 46 µM

**Q.** And the IC50 (A-375)?
**A.** 14.3 µM

**Q.** With `CCc1ccccc1-n1c(=[Se])n(C(c2ccccc2)c2ccccc2)c2ccccc21` as the compound, how does the “inhibition zone (IZ)” value (Aspergillus niger) read?
**A.** 27.01 mm

**Q.** Which IC50 (Calu-1) does the source give for `Cc1ccc(NC(=[Se])NC(=O)c2ccc3c(c2)OCO3)cc1` here?
**A.** 5.9 µM

**Q.** What about the IC50 (NCI-H1299) of the same compound?
**A.** 1.5 µM

**Q.** For `NS(=O)(=O)c1ccc([Se]CCc2ccccc2)cc1`, which Ki [3] is on record?
**A.** 0.0043 µM

**Q.** Which MIC (Pseudomonas aeruginosa [4]) does the source give for `CC(C)(O)c1[se][n+]2ccccc2c1Br.[Cl-]` here?
**A.** 0.31 µg/mL

**Q.** What about the IC50 (Klebsiella pneumoniae [5]) of the same compound?
**A.** 0.31 µg/mL

**Q.** And the MIC (Escherichia coli [6])?
**A.** 0.31 µg/mL

**Q.** And the MIC (Escherichia coli [7])?
**A.** 0.31 µg/mL

**Q.** And the IC50 (Pseudomonas aeruginosa [8])?
**A.** 0.31 µg/mL

**Q.** What about the IC50 (Klebsiella pneumoniae [9]) of the same compound?
**A.** 0.31 µg/mL

**Q.** What about the MIC (Escherichia coli [10]) of the same compound?
**A.** 0.31 µg/mL

**Q.** And the MIC (Escherichia coli [11])?
**A.** 0.31 µg/mL

**Q.** What about the IC50 (Acinetobacter [12]) of the same compound?
**A.** 0.31 µg/mL

**Q.** What about the IC50 (Pseudomonas aeruginosa [13]) of the same compound?
**A.** 0.31 µg/mL

**Q.** What about the IC50 (Acinetobacter [14]) of the same compound?
**A.** 0.31 µg/mL

**Q.** What about the IC50 (Acinetobacter [15]) of the same compound?
**A.** 0.31 µg/mL

**Q.** And the IC50 (Pseudomonas aeruginosa [16]; PA 54, 20 h)?
**A.** 0.31 µg/mL

**Q.** And the MIC (Pseudomonas aeruginosa [16]; PA 54, time 20 hrs)?
**A.** 0.31 µg/mL

**Q.** And the MIC (Staphylococcus aureus)?
**A.** 0.31 µM

**Q.** What about the IC50 (Klebsiella pneumoniae [17]) of the same compound?
**A.** 0.31 µg/mL

**Q.** Which Activity (UACC-903) does the source give for `NC(CCC(=O)NC(CS[Se]Cc1cc(-c2ccccc2)n(-c2ccc(S(N)(=O)=O)cc2)n1)C(=O)NCC(=O)O)C(=O)O` (stereo not given) here?
**A.** 70%

**Q.** And the Activity [18]?
**A.** 70%

**Q.** And the IC50 [19]?
**A.** 7.66 µM

**Q.** Which IC50 (SH-SY5Y) does the source give for `c1ccc([Se][Se]c2ccccc2)cc1` here?
**A.** 30 µM

**Q.** And the MIC (Aspergillus)?
**A.** 0.5 µg/mL (≈ 1.6 µM)

**Q.** What about the MIC (Candida albicans) of the same compound?
**A.** 4 µg/mL (≈ 12.8 µM)

**Q.** And the MIC (Fusarium)?
**A.** 2 µg/mL (≈ 6.41 µM)

**Q.** Which IC50 (HeLa) does the source give for `O=[N+]([O-])c1ccc2n[se]nc2c1` here?
**A.** 4.8 µM

**Q.** What does the source list for `c1csc([Se][Se]c2cccs2)c1`?
**A.** MIC (Enterococcus faecalis): 96.8 µg/mL (≈ 298 µM); MIC [20]: 96.8 µg/mL (≈ 298 µM); MIC (Bacillus cereus [21]): 24.2 µg/mL (≈ 74.6 µM); MIC (Bacillus cereus [22]): 24.2 µg/mL (≈ 74.6 µM)

**Q.** Which results are given for `O=C(NCCC[Se][Se]CCCNC(=O)c1ccccc1Nc1cccc(C(F)(F)F)c1)c1ccccc1Nc1cccc(C(F)(F)F)c1`?
**A.** IC50 (BGC-823): 8.3 µM; IC50 (PC-3): 6.6 µM; IC50 (MCF7 [23]): 6.8 µM; IC50 (Caco-2): 3.9 µM

**Q.** With `Nc1ccc(-c2ccc3n[se]nc3c2)cc1N` as the compound, how does the IC50 [24] read?
**A.** 22.5 µM

**Q.** Which results are given for `O=C(Cn1ccnc1[N+](=O)[O-])NCc1ccccc1` [BENZNIDAZOLE]?
**A.** IC50 (Trypanosoma cruzi [25]): 104 µM; IC50 (Trypanosoma cruzi [26]): 12.5 µM
